Test results taken from patent US20230416202A1, “Small Molecule Compounds and Compositions” (Telo Therapeutics, Inc., priority 2020, published 2023).

Each molecule was assayed on Mutant TERT (assay: HepG2 hTERT mRNA assay (qPCR)). Settings: HepG2 cells (mutated TERT), 48 hours, TERT mRNA via qPCR.
Assay type: cell-based, human
Experimental: (§1) HepG2 cells (hepatocyte carcinoma (HCC) cells; with mutated TERT) or HEK293T cells (with wild type (wt) TERT) were seeded at 4,000 cells/well in 96-well plates. The following day, test compounds were added to cells for at concentrations of 25 uM, 12.5 uM, 6.25 uM, 3.125 uM, 1.563 uM, 0.781 uM, 0.391 uM, 0.195 uM, 0.098 uM or vehicle control (0.1% DMSO). Each condition was tested in three replicate wells. 48 hours post drug addition, the cells were harvested for RNA using the 96-Magmax RNA Isolation kit (Cat. No. AM1830). RNA was converted to cDNA using the Superscript III First strand cDNA synthesis kit (Cat. No. 18080051). RNA and cDNA concentration and quality were determined using the NanoQuant nucleic acid quantification method. 500 ng cDNA from each sample was used to detect TERT mRNA via qPCR. GUSB was also measured as an internal control and fold change to vehicle control was determined using the delta CT method.
In the case of O=C(O)CC1CC(c2ccc(C(F)(F)F)cc2)CN(Cc2ccc(C(F)(F)F)cc2)C1 (stereo not shown) [Compound 132], the IC50 is reported as 0.5 to 5 µM.

Same assay, conditions: Homo sapiens; HepG2 cells (mutated TERT), 48 hours, TERT mRNA via qPCR
O=C(O)C[C@H]1C[C@H](c2ccc(F)c(F)c2)CN(Cc2ccc(C(F)(F)F)cc2)C1 (racemic) [Compound 121, Anti-2-(-5-(3,4-difluorophenyl)-1-(4-(trifluoromethyl)benzyl)piperidin-3-yl)acetic acid] showed an IC50 of 0.5 to 5 µM.
Work on O=C(O)C[C@H]1C[C@H](c2ccc(F)cc2)CN(Cc2ccc(C(F)(F)F)cc2)C1 (racemic) [Compound 122, Anti-2-(5-(4-fluorophenyl)-1-(4-(trifluoromethyl)benzyl)piperidin-3-yl)acetic acid] yielded an IC50 of 0.5 to 5 µM.
For O=C(O)C[C@H]1C[C@H](c2ccc(Cl)cc2)CN(Cc2ccc(C(F)(F)F)cc2)C1 (racemic) [Compound 123, Anti-2-(-5-(4-chlorophenyl)-1-(4-(trifluoromethyl)benzyl)piperidin-3-yl)acetic acid], the IC50 was under 0.5 µM.
N#Cc1cccc(CN2C[C@@H](CC(=O)O)C[C@H](c3ccc(C(F)(F)F)cc3)C2)c1 (racemic) [Compound 124, Anti-2-(-1-(3-cyanobenzyl)-5-(4-(trifluoromethyl)phenyl)piperidin-3-yl)acetic acid] gave an IC50 of under 0.5 µM.
For CCC(C(=O)O)[C@@H]1C[C@@H](c2ccc(C(F)(F)F)cc2)CN(Cc2ccc(C(F)(F)F)cc2)C1 (mixture of isomers) [Compound 125, Anti-2-(1-(4-(trifluoromethyl)benzyl)-5-(4-(trifluoromethyl)phenyl)piperidin-3-yl)butanoic acid], the IC50 was 0.5 to 5 µM.
With N#Cc1cccc([C@H]2C[C@H](CC(=O)O)CN(Cc3ccc(C(F)(F)F)cc3)C2)c1 (racemic) [Compound 127, anti-2-(5-(3-cyanophenyl)1-(4-(trifluoromethyl)benzyl)piperidin-3-yl)acetic acid] the IC50 was 0.5 to 5 µM.
Work on O=C(O)C[C@H]1C[C@H](c2ccc(C(F)(F)F)cc2)CN(Cc2ccc(C(F)(F)F)cc2F)C1 (racemic) [Compound 128, Anti-2-(1-(2-fluoro-4-(trifluoromethyl)benzyl)-5-(4-(trifluoromethyl)phenyl)piperidin-3-yl)acetic acid] yielded an IC50 of 0.5 to 5 µM.
O=C(O)C[C@H]1C[C@H](c2ccc(C(F)(F)F)c(F)c2)CN(Cc2ccc(C(F)(F)F)cc2)C1 (racemic) [Compound 129, Anti-2-(5-(3-fluoro-4-(trifluoromethyl)phenyl)-1-(4-(trifluoromethyl)benzyl)piperidin-3-yl)acetic acid] gave an IC50 of 0.5 to 5 µM.
O=C(O)C[C@H]1C[C@H](c2ccc(C(F)(F)F)cc2)CN(Cc2ccc(C(F)(F)F)c(F)c2)C1 (racemic) [Compound 130, Anti-2-(1-(3-fluoro-4-(trifluoromethyl)benzyl)-5-(4-(trifluoromethyl)phenyl)piperidin-3-yl)acetic acid] was tested, and the IC50 was 0.5 to 5 µM.
Work on O=C(O)C[C@H]1C[C@H](c2ccc(C(F)(F)F)cc2)CN(Cc2ccc(C(F)(F)F)cc2Cl)C1 (racemic) [Compound 131, Anti-2-(-1-(2-chloro-4-(trifluoromethyl)benzyl)-5-(4-(trifluoromethyl)phenyl)piperidin-3-yl)acetic acid] yielded an IC50 of 0.5 to 5 µM.
O=C(O)C[C@H]1C[C@H](CCc2ccc(C(F)(F)F)cc2)CN(Cc2ccc(C(F)(F)F)cc2)C1 (racemic) [Compound 133, Anti-2-(1-(4-(trifluoromethyl)benzyl)-5-(4-(trifluoromethyl)phenethyl)piperidin-3-yl)acetic acid] gave an IC50 of 0.5 to 5 µM.
[N-]=[N+]=NCc1ccc(CN2C[C@@H](CC(=O)O)C[C@H](c3ccc(N=[N+]=[N-])cc3)C2)cc1 (racemic) [Compound 134, anti-2-(1-(4-(azidomethyl)benzyl)-5-(4-azidophenyl)piperidin-3-yl)acetic acid] showed an IC50 of 0.5 to 5 µM.
Work on O=C(O)C[C@H]1C[C@H](c2ccc(Cl)cc2)CN(Cc2ccc(Cl)cc2)C1 (racemic) [Compound 135, Anti-2-(1-(4-chlorobenzyl)-5-(4-chlorophenyl)piperidin-3-yl)acetic acid] yielded an IC50 of under 0.5 µM.
For C#Cc1ccc([C@H]2C[C@H](CC(=O)O)CN(Cc3ccc(C4(C(F)(F)F)N=N4)cc3)C2)cc1 (racemic) [Compound 136, Anti-2-(5-(4-ethynylphenyl)-1-(4-(3-(trifluoromethyl)-3H-diazirin-3-yl)benzyl)piperidin-3-yl)acetic acid], the IC50 was 0.5 to 5 µM.
C#Cc1ccc([C@H]2C[C@H](CC(=O)O)CN(Cc3ccc(N=[N+]=[N-])cc3)C2)cc1 (racemic) [Compound 137, Anti-2-(1-(4-azidobenzyl)-5-(4-ethynylphenyl)piperidin-3-yl)acetic acid] gave an IC50 of 0.5 to 5 µM.
With O=C(O)C[C@H]1C[C@H](c2ccc(C(F)(F)F)cc2)CN(Cc2ccccc2)C1 (racemic) [Compound 138, Anti-2-(1-benzyl-5-(4-(trifluoromethyl)phenyl)piperidin-3-yl)acetic acid] the IC50 was 0.5 to 5 µM.
Work on N#Cc1cc(CN2C[C@H](CC(=O)O)C[C@@H](c3ccc(C(F)(F)F)cc3)C2)ccc1Cl (racemic) [Compound 140, Anti-2-(1-(4-chloro-3-cyanobenzyl)-5-(4-(trifluoromethyl)phenyl)piperidin-3-yl)acetic acid] yielded an IC50 of 0.5 to 5 µM.
For O=C(O)C[C@H]1C[C@H](c2ccc(C(F)(F)F)cc2)CN(Cc2ccc3ccccc3c2)C1 (racemic) [Compound 141, Anti-2-(1-(naphthalen-2-ylmethyl)-5-(4-(trifluoromethyl)phenyl)piperidin-3-yl)acetic acid], the IC50 was 0.5 to 5 µM.
In the case of O=C(O)C[C@H]1C[C@H](c2cccc(Cl)c2)CN(Cc2ccc(C(F)(F)F)cc2)C1 (racemic) [Compound 143, Anti-2-(5-(3-chlorophenyl)-1-(4-(trifluoromethyl)benzyl)piperidin-3-yl)acetic acid], the IC50 is reported as 5 to 25 µM.
O=C(O)C[C@@H]1C[C@@H](c2ccc(Cl)cc2)CN(Cc2ccc(C(F)(F)F)cc2)C1 (single isomer, unassigned) [Compound 142] showed an IC50 of under 0.5 µM.
Molecule C#Cc1ccc(CN2C[C@H](CC(=O)O)C[C@@H](c3ccc(N=[N+]=[N-])cc3)C2)cc1 (single isomer, unassigned) [Compound 144] has an IC50 of 0.5 to 5 µM.
Work on [N-]=[N+]=NCc1ccc(CN2C[C@H](CC(=O)O)C[C@@H](c3ccc(N=[N+]=[N-])cc3)C2)cc1 (single isomer, unassigned) [Compound 145] yielded an IC50 of 0.5 to 5 µM.
C#Cc1ccc([C@@H]2C[C@@H](CC(=O)O)CN(Cc3ccc(C4(C(F)(F)F)N=N4)cc3)C2)cc1 (single isomer, unassigned) [Compound 146] showed an IC50 of 0.5 to 5 µM.
For COc1cccc(CN2C[C@H](CC(=O)O)C[C@@H](c3ccc(C(F)(F)F)cc3)C2)c1 [Compound 110, 2-((3S,5S)-1-(3-methoxybenzyl)-5-(4-(trifluoromethyl)phenyl)piperidin-3-yl)acetic acid], the IC50 was over 25 µM.
Molecule O=C(O)C[C@@H]1C[C@@H](c2ccc(C(F)(F)F)cc2)CN(Cc2cccc(C(F)(F)F)c2)C1 [Compound 111, 2-((3S,5S)-1-(3-(trifluoromethyl)benzyl)-5-(4-(trifluoromethyl)phenyl)piperidin-3-yl)acetic acid] has an IC50 of under 0.5 µM.
Molecule O=C(O)C[C@@H]1C[C@@H](c2ccc(C(F)(F)F)cc2)CN(Cc2ccc(Cl)cc2)C1 [Compound 116, 2-((3S,5S)-1-(4-chlorobenzyl)-5-(4-(trifluoromethyl)phenyl)piperidin-3-yl)acetic acid] has an IC50 of 0.5 to 5 µM.
O=C(O)C[C@@H]1C[C@@H](c2ccc(C(F)(F)F)cc2)CN(Cc2ccc(F)cc2)C1 [Compound 117, 2-((3S,5S)-1-(4-fluorobenzyl)-5-(4-(trifluoromethyl)phenyl)piperidin-3-yl)acetic acid] was tested, and the IC50 was 0.5 to 5 µM.
O=C(O)C[C@@H]1C[C@@H](c2ccc(C(F)(F)F)cc2)CN(Cc2ccc(F)c(F)c2)C1 [Compound 118, 2-((3S,5S)-1-(3,4-difluorobenzyl)-5-(4-(trifluoromethyl)phenyl)piperidin-3-yl)acetic acid] gave an IC50 of under 0.5 µM.
O=C(O)C[C@@H]1C[C@@H](c2ccc(C(F)(F)F)cc2)CN(Cc2ccccc2F)C1 [Compound 119, 2-((3S,5S)-1-(2-fluorobenzyl)-5-(4-(trifluoromethyl)phenyl)piperidin-3-yl)acetic acid] showed an IC50 of 0.5 to 5 µM.
Molecule CS(=O)(=O)c1ccc(CN2C[C@H](CC(=O)O)C[C@@H](c3ccc(C(F)(F)F)cc3)C2)cc1 [Compound 120, 2-((3S,5S)-1-(4-(methylsulfonyl)benzyl)-5-(4-(trifluoromethyl)phenyl)piperidin-3-yl)acetic acid] has an IC50 of 0.5 to 5 µM.
Molecule O=C(O)CC[C@H]1C[C@H](c2ccc(C(F)(F)F)cc2)CN(Cc2ccc(C(F)(F)F)cc2)C1 [Compound 126, Anti-3-(1-(4-(trifluoromethyl)benzyl)-5-(4-(trifluoromethyl)phenyl)piperidin-3-yl)propanoic acid] has an IC50 of 0.5 to 5 µM.
O=C(O)C[C@@H]1C[C@@H](c2ccc(Cl)cc2)CN(Cc2ccc(Cl)cc2)C1 [Compound 139, 2-((3S,5S)-1-(4-chlorobenzyl)-5-(4-chlorophenyl)piperidin-3-yl)acetic acid] was tested, and the IC50 was 0.5 to 5 µM.

The molecules below were run on wt TERT (assay: HEK293T hTERT mRNA assay (qPCR)). Settings: Homo sapiens, HEK-293T; wild type TERT; read-out: wt TERT IC50.
Assay type: cell-based, human
Experimental: as §1
For COc1cccc(CN2C[C@H](CC(=O)O)C[C@@H](c3ccc(C(F)(F)F)cc3)C2)c1 [Compound 110, 2-((3S,5S)-1-(3-methoxybenzyl)-5-(4-(trifluoromethyl)phenyl)piperidin-3-yl)acetic acid], the IC50 was over 25 µM.
O=C(O)C[C@@H]1C[C@@H](c2ccc(C(F)(F)F)cc2)CN(Cc2cccc(C(F)(F)F)c2)C1 [Compound 111, 2-((3S,5S)-1-(3-(trifluoromethyl)benzyl)-5-(4-(trifluoromethyl)phenyl)piperidin-3-yl)acetic acid] gave an IC50 of over 25 µM.

Same assay, conditions: Homo sapiens; HEK293 cells (wt TERT), 48 hours, class symbols; read-out: wt TERT IC50 uM HEK293
COc1cccc(CN2C[C@H](CC(=O)O)C[C@@H](c3ccc(C(F)(F)F)cc3)C2)c1 [Compound 110, 2-((3S,5S)-1-(3-methoxybenzyl)-5-(4-(trifluoromethyl)phenyl)piperidin-3-yl)acetic acid] showed an IC50 of over 25 µM.
O=C(O)C[C@@H]1C[C@@H](c2ccc(C(F)(F)F)cc2)CN(Cc2cccc(C(F)(F)F)c2)C1 [Compound 111, 2-((3S,5S)-1-(3-(trifluoromethyl)benzyl)-5-(4-(trifluoromethyl)phenyl)piperidin-3-yl)acetic acid] was tested, and the IC50 was over 25 µM.
